pIC50, pKi: −log10 of the molar value. Several values for one entry are separate records, joined by “and”; a condition that tells them apart may be missing. Equal values may be shown once. Read-outs that look alike come from different tables or passages of the source. Starred links: 1 amine or outer side, 2 acyl side, 3 side chain; linkers in the order of their positions; H or OH if unused. Positions of bridges follow the written chain, without caps; N, C: chain ends. Non-standard residues stand in square brackets, D forms with d. Residues, ends and D or L forms follow the SMILES beside them. Trp(2-yl) = O=C([C@H](Cc1c([*:3])[nH]c2ccccc12)N[*:1])[*:2]; Leu(4R-OH,5-OH) = C[C@](O)(CO)C[C@H](N)C(=O)O; cisHyp = O=C(O)[C@@H]1C[C@H](O)CN1
How the values were obtained:
[1] = molecular target: T1, OATP1B1 (Homo sapiens, UniProt Q9Y6L6); assay: Screening for inhibition of OATP1B1-mediated estradiol-17β-glucuronide uptake; conditions: for Classification as OATP1B1 inhibitor (more than 50% inhibition of E17βG uptake): 20 μM test compound
T1 sequence (Q9Y6L6 1-691): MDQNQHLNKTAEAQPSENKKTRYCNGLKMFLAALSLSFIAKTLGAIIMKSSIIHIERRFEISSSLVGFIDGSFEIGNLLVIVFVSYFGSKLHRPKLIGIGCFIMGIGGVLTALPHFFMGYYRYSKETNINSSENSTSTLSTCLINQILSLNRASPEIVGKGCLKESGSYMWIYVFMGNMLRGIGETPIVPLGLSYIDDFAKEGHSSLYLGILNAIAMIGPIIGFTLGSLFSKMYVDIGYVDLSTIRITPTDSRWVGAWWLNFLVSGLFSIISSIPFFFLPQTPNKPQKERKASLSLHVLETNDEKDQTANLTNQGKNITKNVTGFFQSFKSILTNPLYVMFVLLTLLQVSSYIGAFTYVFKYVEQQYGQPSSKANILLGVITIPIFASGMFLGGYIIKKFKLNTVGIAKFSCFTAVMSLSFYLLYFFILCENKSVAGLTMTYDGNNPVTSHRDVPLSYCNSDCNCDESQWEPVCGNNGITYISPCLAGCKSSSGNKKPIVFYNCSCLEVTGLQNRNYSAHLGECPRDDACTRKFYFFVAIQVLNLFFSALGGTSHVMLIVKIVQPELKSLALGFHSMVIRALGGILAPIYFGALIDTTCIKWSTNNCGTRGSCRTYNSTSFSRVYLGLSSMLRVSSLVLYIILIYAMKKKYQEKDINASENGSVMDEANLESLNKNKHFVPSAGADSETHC

[2] = cited from earlier work; for Imax, maximum systemic plasma concentration of the inhibitor: amprenavir recalculated from fosamprenavir data, ref [23]–[28]; for Fa, fraction of the inhibitor dose absorbed (maximum oral bioavailability): ref [23]–[25]
[3] = molecular target: T1, OATP1B1; assay: Calculation of R-values; conditions: for R-value E: ka = 0.03, Fa published value (lopinavir Fa = 1); for Range of the eight R-values A–H: all eight calculation variants; for Average (mean) R-value: mean of the eight R-values A–H
[4] = molecular target: T1, OATP1B1; assay: Concentration-dependent inhibition of OATP1B1-mediated atorvastatin uptake; type: cell-based
[5] = molecular target: T1, OATP1B1; assay: Michaelis-Menten uptake kinetics in HEK293 cells stably expressing OATP1B1; type: cell-based
[6] = molecular target: T1, OATP1B1; conditions: IC50 from another study and cell system; ref [3]; cited from earlier work
[7] = human, pH 7.4, Inhibition of E17βG uptake, 100 μM test compound (data not shown)

COC(=O)[C@H]1[C@H]2C[C@@H]3c4[nH]c5cc(OC)ccc5c4CCN3C[C@H]2C[C@@H](OC(=O)c2cc(OC)c(OC)c(OC)c2)[C@@H]1OC [Reserpine]
Classification as OATP1B1 inhibitor (more than 50% inhibition of E17βG uptake) [1]: inhibitors

COC(=O)C1=C(C)NC(C)=C(C(=O)OCCN(C)Cc2ccccc2)C1c1cccc([N+](=O)[O-])c1 (stereo not drawn) [Nicardipine]
Classification as OATP1B1 inhibitor (more than 50% inhibition of E17βG uptake) [1]: inhibitors

COc1ccc2c(c1)c(CC(=O)O)c(C)n2C(=O)c1ccc(Cl)cc1 [Indomethacin]
Classification as OATP1B1 inhibitor (more than 50% inhibition of E17βG uptake) [1]: inhibitors

Nc1ncnc2c1ncn2CCOCP(=O)(O)O [Adefovir]
Classification as OATP1B1 inhibitor (more than 50% inhibition of E17βG uptake) [1]: inhibitors

CC(C)CN(C[C@@H](O)[C@H](Cc1ccccc1)NC(=O)O[C@H]1CCOC1)S(=O)(=O)c1ccc(N)cc1 [Amprenavir]
Imax, maximum systemic plasma concentration of the inhibitor [2]: 11.2 µM
Fa, fraction of the inhibitor dose absorbed (maximum oral bioavailability) [2]: 0.9
R-value B ([3]; Eq. 2 (IC50), ka = 0.03, Fa = 1, International Transporter Consortium method): 1.21
R-value D ([3]; Eq. 2 (IC50), ka = 0.1, Fa = 1): 1.54
R-value C ([3]; Eq. 2 (IC50), ka = 0.1, Fa published value (lopinavir Fa = 1)): 1.49
R-value F ([3]; Eq. 3 (Ki), ka = 0.03, Fa = 1): 1.37
R-value E ([3]; Eq. 3 (Ki)): 1.34
R-value H ([3]; Eq. 3 (Ki), ka = 0.1, Fa = 1, Hirano et al. method): 1.95
R-value G ([3]; Eq. 3 (Ki), ka = 0.1, Fa published value (lopinavir Fa = 1)): 1.87
Range of the eight R-values A–H [3]: 1.19–1.95 and < 2
Average (mean) R-value [3]: 1.49
pKi [4]: 5.02

CCOc1cc(CC(=O)N[C@@H](CC(C)C)c2ccccc2N2CCCCC2)ccc1C(=O)O [Repaglinide]
Classification as OATP1B1 inhibitor (more than 50% inhibition of E17βG uptake) [1]: classified as OATP1B1 inhibitors

C[C@]12CC[C@@H]3c4ccc(O)cc4CC[C@H]3[C@@H]1CC[C@@H]2O[C@@H]1O[C@H](C(=O)O)[C@@H](O)[C@H](O)[C@H]1O [Estradiol-17-β-glucuronide]
Vmax of OATP1B1-mediated uptake ([5]; E17βG 1–200 μM, 96-well plates, HEK293-OATP1B1): 1.37 (± 0.12) pmol/min/mg protein
Uptake in OATP1B1 cells relative to mock-transfected cells ([5]; at 5 min (E17βG) and 2 min (atorvastatin)): at least 8 times

CC(C)OC(=O)C(C)(C)Oc1ccc(C(=O)c2ccc(Cl)cc2)cc1 [Fenofibrate]
Fa, fraction of the inhibitor dose absorbed (maximum oral bioavailability) [2]: 0.81
Inhibition of atorvastatin uptake (in words) ([4]; investigated concentration interval 0.1–100 μM, 1 μM atorvastatin): did not inhibit atorvastatin uptake

C[C@H](CCC(=O)NCCS(=O)(=O)O)[C@H]1CC[C@H]2[C@@H]3CC[C@@H]4C[C@H](O)CC[C@]4(C)[C@H]3C[C@H](O)[C@]12C [Taurodeoxycholate]
Classification as OATP1B1 inhibitor (more than 50% inhibition of E17βG uptake) [1]: inhibitors

CC/C(=C(/CC)c1ccc(O)cc1)c1ccc(O)cc1 [Diethylstilbestrol]
Classification as OATP1B1 inhibitor (more than 50% inhibition of E17βG uptake) [1]: inhibitors

C[C@H](CCC(=O)NCCS(=O)(=O)O)[C@H]1CC[C@H]2[C@@H]3[C@H](O)C[C@@H]4C[C@H](O)CC[C@]4(C)[C@H]3CC[C@]12C [Taurochenodeoxycholate]
Classification as OATP1B1 inhibitor (more than 50% inhibition of E17βG uptake) [1]: inhibitors

C[C@H](CCC(=O)NCC(=O)O)[C@H]1CC[C@H]2[C@@H]3[C@H](O)C[C@@H]4C[C@H](O)CC[C@]4(C)[C@H]3CC[C@]12C [Glycochenodeoxycholate]
Classification as OATP1B1 inhibitor (more than 50% inhibition of E17βG uptake) [1]: inhibitors

C[C@H](CCC(=O)NCC(=O)O)[C@H]1CC[C@H]2[C@@H]3CC[C@@H]4C[C@H](O)CC[C@]4(C)[C@H]3C[C@H](O)[C@]12C [Glycodeoxycholate]
Classification as OATP1B1 inhibitor (more than 50% inhibition of E17βG uptake) [1]: inhibitors

C[C@@H]1NC(=O)[C@H](C[C@@](C)(O)CO)NC(=O)[C@@H]2Cc3c([nH]c4ccccc34)SC[C@H](NC(=O)[C@@H]([C@H](C)O)NC1=O)C(=O)N1C[C@@H](O)C[C@H]1C(=O)N[C@@H](C)C(=O)N2 [Phalloidin] (cyclo(A[dT]C[cisHyp]A[Trp(2-yl)][Leu(4R-OH,5-OH)]); thioether 3-6)
Classification as OATP1B1 inhibitor (more than 50% inhibition of E17βG uptake) [1]: not identified as inhibitors
inhibition at 5 min, 100 µM ([1]; human, pH 7.4): 49%

CC[C@]1(O)C[C@@H]2CN(CCc3c([nH]c4ccccc34)[C@@](C(=O)OC)(c3cc4c(cc3OC)N(C)[C@H]3[C@@](O)(C(=O)OC)[C@H](OC(C)=O)[C@]5(CC)C=CCN6CC[C@]43[C@@H]65)C2)C1 [Vinblastine]
Classification as OATP1B1 inhibitor (more than 50% inhibition of E17βG uptake) [1]: inhibitors

CC(=O)S[C@@H]1CC2=CC(=O)CC[C@]2(C)[C@H]2CC[C@@]3(C)[C@@H](CC[C@@]34CCC(=O)O4)[C@H]12 [Spironolactone]
Classification as OATP1B1 inhibitor (more than 50% inhibition of E17βG uptake) [1]: inhibitors

N[C@@H](Cc1cc(I)c(Oc2cc(I)c(O)c(I)c2)c(I)c1)C(=O)O [Levothyroxin]
Classification as OATP1B1 inhibitor (more than 50% inhibition of E17βG uptake) [1]: not identified as inhibitors
inhibition at 5 min, 75 µM ([1]; human, pH 7.4, Inhibition of E17βG uptake, 75 μM test compound (data not shown)): > 50%
inhibition at 5 min, 100 µM [1, 7]: > 50%

Ivermectin
Classification as OATP1B1 inhibitor (more than 50% inhibition of E17βG uptake) [1]: inhibitors

Cc1cccc(C)c1OCC(=O)N[C@@H](Cc1ccccc1)[C@@H](O)C[C@H](Cc1ccccc1)NC(=O)[C@H](C(C)C)N1CCCNC1=O [Lopinavir]
R-value B calculated in the literature [6]: 9.2
R-value B [3]: 1.76
R-value C [3]: 2.56
R-value D [3]: 2.56
R-value F [3]: 2.74
R-value G [3]: 4.58
R-value H [3]: 4.58
R-value E ([3]; Eq. 3 (Ki)): 2.74
Range of the eight R-values A–H [3]: 1.76–4.58
Average (mean) R-value [3]: 2.91
pIC50 [4]: 6.13
pKi [4]: 6.49

CCC[C@@]1(CCc2ccccc2)CC(O)=C([C@H](CC)c2cccc(NS(=O)(=O)c3ccc(C(F)(F)F)cn3)c2)C(=O)O1 [Tipranavir]
Classification as OATP1B1 inhibitor (more than 50% inhibition of E17βG uptake) [1]: inhibitors

COC(=O)N[C@H](C(=O)N[C@@H](Cc1ccccc1)[C@@H](O)CN(Cc1ccc(-c2ccccn2)cc1)NC(=O)[C@@H](NC(=O)OC)C(C)(C)C)C(C)(C)C [Atazanavir]
Imax, maximum systemic plasma concentration of the inhibitor [2]: 4.47 µM
Fa, fraction of the inhibitor dose absorbed (maximum oral bioavailability) [2]: 0.68
R-value B [3]: 2.38
R-value C [3]: 3.63
R-value D [3]: 4.68
R-value F [3]: 3.43
R-value G [3]: 5.64
R-value H [3]: 7.49
R-value E ([3]; Eq. 3 (Ki)): 2.87
Average (mean) R-value [3]: 4.02
pIC50 [4]: 5.79
pKi [4]: 6.04

CNC(=O)c1cccnc1 [N-methylnicotinamide]
Classification as OATP1B1 inhibitor (more than 50% inhibition of E17βG uptake) [1]: inhibitors

C[C@@H]1[C@H](O)[C@@H](C)/C=C/C=C/CC/C=C/C=C/C=C/C=C/C(O[C@H]2O[C@H](C)[C@@H](O)[C@H](N)[C@@H]2O)CC2O[C@](O)(CC(O)C(O)CCC(O)CC(O)CC(O)CC(=O)O[C@H]1C)CC(O)C2C(=O)O (stereo partly drawn) [Nystatin]
Classification as OATP1B1 inhibitor (more than 50% inhibition of E17βG uptake) [1]: inhibitors

CC1(C)S[C@@H]2[C@H](NC(=O)Cc3ccccc3)C(=O)N2[C@H]1C(=O)O [Penicillin G]
inhibition at 5 min, 100 µM [1, 7]: 32%

CC(=O)Oc1ccc2c(c1)Oc1cc(OC(C)=O)ccc1C21OC(=O)c2cc(C(=O)O)ccc21 [5-CFDA]
Classification as OATP1B1 inhibitor (more than 50% inhibition of E17βG uptake) [1]: inhibitors

O=C(O)c1cc(/N=N/c2ccc(S(=O)(=O)Nc3ccccn3)cc2)ccc1O [Sulfasalazine]
Classification as OATP1B1 inhibitor (more than 50% inhibition of E17βG uptake) [1]: inhibitors

CCOc1nc2cccc(C(=O)O)c2n1Cc1ccc(-c2ccccc2-c2nnn[nH]2)cc1 [Candesartan]
Classification as OATP1B1 inhibitor (more than 50% inhibition of E17βG uptake) [1]: inhibitors

CN(CCOc1ccc(CC2SC(=O)NC2=O)cc1)c1ccccn1 (stereo not drawn) [Rosiglitazone]
Classification as OATP1B1 inhibitor (more than 50% inhibition of E17βG uptake) [1]: classified as OATP1B1 inhibitors
